Source: US10131652B2, “Pyrimidinyloxy benzene derivatives as herbicides” (E. I. DU PONT DE NEMOURS AND COMPANY, priority 2014, dated 2018)

What was measured:
Test in all cases: Test F pre-/postemergence plant response
Assay type in all cases: in vivo
Details in all cases: scale 0 to 100
[1] = system: sandbur (southern sandbur, Cenchrus echinatus)
In short: (§1)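 In a greenhouse, compounds carried in a non-phytotoxic surfactant-containing solvent mixture were applied to soil at planting and to young 1- to 4-leaf plants. About two to three weeks (14 to 21 days) afterward, each species was compared with controls and rated visually from 0 to 100.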

[2] = system: wild poinsettia (Euphorbia heterophylla)
In short: as §1

[3] = system: soybean (Glycine max)
In short: as §1

[4] = system: goosegrass (Eleusine indica)
In short: as §1

[5] = system: palmer pigweed (Amaranthus palmeri)
In short: as §1

[6] = system: Brazilian crabgrass (Digitaria horizontalis)
In short: as §1

[7] = system: dayflower (Virginia (VA) dayflower, Commelina virginica)
In short: as §1

[8] = system: fall panicum (Panicum dichotomiflorum)
In short: as §1

[9] = system: lambsquarters (Chenopodium album)
In short: as §1

[10] = system: johnsongrass (Sorghum halepense)
In short: as §1

[11] = system: green foxtail (Setaria viridis)
In short: as §1

[12] = system: morningglory (Ipomoea coccinea)
In short: as §1

[13] = system: corn (Zea mays)
In short: as §1

[14] = system: waterhemp (common waterhemp, Amaranthus rudis)
In short: as §1

[15] = system: field bindweed (Convolvulus arvensis)
In short: as §1

[16] = system: giant foxtail (Setaria faberii)
In short: as §1

In the case of Fc1ccc(Oc2ncc(Cl)cn2)c(-c2cc(C(F)F)on2)c1Cl [Compound 96], the “Plant response rating, Sandbur” value ([1]; 16 g ai/ha Postemergence) is reported as 0, the “Plant response rating, Sandbur” value ([1]; 16 g ai/ha Preemergence) is reported as 0 and the “Plant response rating, Sandbur” value ([1]; 31 g ai/ha Postemergence) is reported as 0. For the same compound, the “Plant response rating, Sandbur” value ([1]; 31 g ai/ha Preemergence) was 10, the “Plant response rating, Sandbur” value ([1]; 62 g ai/ha Postemergence) was 0 and the “Plant response rating, Sandbur” value ([1]; 125 g ai/ha Postemergence) was 0. The “Plant response rating, Sandbur” value ([1]; 125 g ai/ha Preemergence) was 30, the “Plant response rating, Sandbur” value ([1]; Preemergence) was 40 and the “Plant response rating, Poinsettia, Wild” value ([2]; 16 g ai/ha Postemergence) was 0. For the same compound, the “Plant response rating, Poinsettia, Wild” value ([2]; 16 g ai/ha Preemergence) was 0, the “Plant response rating, Poinsettia, Wild” value ([2]; 31 g ai/ha Postemergence) was 30 and the “Plant response rating, Poinsettia, Wild” value ([2]; 31 g ai/ha Preemergence) was 0. For the same compound, the “Plant response rating, Poinsettia, Wild” value ([2]; 62 g ai/ha Postemergence) was 60, the “Plant response rating, Poinsettia, Wild” value ([2]; 125 g ai/ha Postemergence) was 50 and the “Plant response rating, Poinsettia, Wild” value ([2]; 125 g ai/ha Preemergence) was 25. For the same compound, the “Plant response rating, Poinsettia, Wild” value ([2]; Preemergence) was 0, the “Plant response rating, Soybean” value ([3]; 16 g ai/ha Postemergence) was 40 and the “Plant response rating, Soybean” value ([3]; 16 g ai/ha Preemergence) was 0. For the same compound, the “Plant response rating, Soybean” value ([3]; 31 g ai/ha Preemergence) was 0, the “Plant response rating, Soybean” value ([3]; 62 g ai/ha Postemergence) was 40 and the “Plant response rating, Soybean” value ([3]; 125 g ai/ha Postemergence) was 80. For the same compound, the “Plant response rating, Soybean” value ([3]; 125 g ai/ha Preemergence) was 0, the “Plant response rating, Soybean” value ([3]; Preemergence) was 0 and the “Plant response rating, Goosegrass” value ([4]; 16 g ai/ha Preemergence) was 50. For the same compound, the “Plant response rating, Goosegrass” value ([4]; 31 g ai/ha Preemergence) was 40, the “Plant response rating, Goosegrass” value ([4]; 125 g ai/ha Preemergence) was 60 and the “Plant response rating, Goosegrass” value ([4]; Preemergence) was 40. The “Plant response rating, Pigweed, Palmer” value ([5]; 16 g ai/ha Postemergence) was 70, the “Plant response rating, Pigweed, Palmer” value ([5]; 16 g ai/ha Preemergence) was 80 and the “Plant response rating, Pigweed, Palmer” value ([5]; 31 g ai/ha Postemergence) was 80. The “Plant response rating, Pigweed, Palmer” value ([5]; 31 g ai/ha Preemergence) was 98, the “Plant response rating, Pigweed, Palmer” value ([5]; 62 g ai/ha Postemergence) was 95 and the “Plant response rating, Pigweed, Palmer” value ([5]; 125 g ai/ha Postemergence) was 90. The “Plant response rating, Pigweed, Palmer” value ([5]; 125 g ai/ha Preemergence) was 100, the “Plant response rating, Pigweed, Palmer” value ([5]; Preemergence) was 100 and the “Plant response rating, Crabgrass, Brazil” value ([6]; 16 g ai/ha Postemergence) was 0. For the same compound, the “Plant response rating, Crabgrass, Brazil” value ([6]; 16 g ai/ha Preemergence) was 0, the “Plant response rating, Crabgrass, Brazil” value ([6]; 31 g ai/ha Postemergence) was 5 and the “Plant response rating, Crabgrass, Brazil” value ([6]; 31 g ai/ha Preemergence) was 0. The “Plant response rating, Crabgrass, Brazil” value ([6]; 62 g ai/ha Postemergence) was 20, the “Plant response rating, Crabgrass, Brazil” value ([6]; 62 g ai/ha Preemergence) was 0 and the “Plant response rating, Crabgrass, Brazil” value ([6]; 125 g ai/ha Postemergence) was 25. The “Plant response rating, Crabgrass, Brazil” value ([6]; 125 g ai/ha Preemergence) was 5, the “Plant response rating, Dayflower, VA” value ([7]; 16 g ai/ha Postemergence) was 20 and the “Plant response rating, Dayflower, VA” value ([7]; 16 g ai/ha Preemergence) was 0. For the same compound, the “Plant response rating, Dayflower, VA” value ([7]; 31 g ai/ha Postemergence) was 40, the “Plant response rating, Dayflower, VA” value ([7]; 31 g ai/ha Preemergence) was 0 and the “Plant response rating, Dayflower, VA” value ([7]; 62 g ai/ha Postemergence) was 70. The “Plant response rating, Dayflower, VA” value ([7]; 62 g ai/ha Preemergence) was 0, the “Plant response rating, Dayflower, VA” value ([7]; 125 g ai/ha Postemergence) was 70 and the “Plant response rating, Dayflower, VA” value ([7]; 125 g ai/ha Preemergence) was 20. The “Plant response rating, Panicum, Fall” value ([8]; 16 g ai/ha Postemergence) was 0, the “Plant response rating, Panicum, Fall” value ([8]; 31 g ai/ha Postemergence) was 15 and the “Plant response rating, Panicum, Fall” value ([8]; 31 g ai/ha Preemergence) was 40. For the same compound, the “Plant response rating, Panicum, Fall” value ([8]; 62 g ai/ha Postemergence) was 10, the “Plant response rating, Panicum, Fall” value ([8]; 125 g ai/ha Postemergence) was 25 and the “Plant response rating, Panicum, Fall” value ([8]; 125 g ai/ha Preemergence) was 70. For the same compound, the “Plant response rating, Panicum, Fall” value ([8]; Preemergence) was 50, the “Plant response rating, Lambsquarters” value ([9]; 16 g ai/ha Preemergence) was 5 and the “Plant response rating, Lambsquarters” value ([9]; 31 g ai/ha Preemergence) was 100. For the same compound, the “Plant response rating, Lambsquarters” value ([9]; 125 g ai/ha Preemergence) was 100, the “Plant response rating, Lambsquarters” value ([9]; Preemergence) was 100 and the “Plant response rating, Johnsongrass” value ([10]; 16 g ai/ha Preemergence) was 20. The “Plant response rating, Johnsongrass” value ([10]; 31 g ai/ha Preemergence) was 60, the “Plant response rating, Johnsongrass” value ([10]; 125 g ai/ha Preemergence) was 98 and the “Plant response rating, Johnsongrass” value ([10]; Preemergence) was 50. For the same compound, the “Plant response rating, Foxtail, Green” value ([11]; 16 g ai/ha Preemergence) was 25, the “Plant response rating, Foxtail, Green” value ([11]; 31 g ai/ha Preemergence) was 30 and the “Plant response rating, Foxtail, Green” value ([11]; 125 g ai/ha Preemergence) was 25. For the same compound, the “Plant response rating, Foxtail, Green” value ([11]; Preemergence) was 35, the “Plant response rating, Morningglory” value ([12]; 16 g ai/ha Preemergence) was 35 and the “Plant response rating, Morningglory” value ([12]; 31 g ai/ha Preemergence) was 35. The “Plant response rating, Morningglory” value ([12]; 125 g ai/ha Preemergence) was 25, the “Plant response rating, Morningglory” value ([12]; Preemergence) was 35 and the “Plant response rating, Corn” value ([13]; 16 g ai/ha Postemergence) was 0. The “Plant response rating, Corn” value ([13]; 16 g ai/ha Preemergence) was 0, the “Plant response rating, Corn” value ([13]; 31 g ai/ha Postemergence) was 5 and the “Plant response rating, Corn” value ([13]; 31 g ai/ha Preemergence) was 0. The “Plant response rating, Corn” value ([13]; 62 g ai/ha Postemergence) was 10, the “Plant response rating, Corn” value ([13]; 62 g ai/ha Preemergence) was 0 and the “Plant response rating, Corn” value ([13]; 125 g ai/ha Postemergence) was 10. The “Plant response rating, Corn” value ([13]; 125 g ai/ha Preemergence) was 0, the “Plant response rating, Waterhemp” value ([14]; 16 g ai/ha Postemergence) was 75 and the “Plant response rating, Waterhemp” value ([14]; 16 g ai/ha Preemergence) was 40. The “Plant response rating, Waterhemp” value ([14]; 31 g ai/ha Postemergence) was 90, the “Plant response rating, Waterhemp” value ([14]; 31 g ai/ha Preemergence) was 100 and the “Plant response rating, Waterhemp” value ([14]; 62 g ai/ha Postemergence) was 100. For the same compound, the “Plant response rating, Waterhemp” value ([14]; 125 g ai/ha Postemergence) was 95, the “Plant response rating, Waterhemp” value ([14]; 125 g ai/ha Preemergence) was 100 and the “Plant response rating, Waterhemp” value ([14]; Preemergence) was 100. The “Plant response rating, Field Bindweed” value ([15]; 16 g ai/ha Postemergence) was 5, the “Plant response rating, Field Bindweed” value ([15]; 16 g ai/ha Preemergence) was 0 and the “Plant response rating, Field Bindweed” value ([15]; 31 g ai/ha Postemergence) was 10. For the same compound, the “Plant response rating, Field Bindweed” value ([15]; 31 g ai/ha Preemergence) was 0, the “Plant response rating, Field Bindweed” value ([15]; 62 g ai/ha Postemergence) was 20 and the “Plant response rating, Field Bindweed” value ([15]; 62 g ai/ha Preemergence) was 60. For the same compound, the “Plant response rating, Field Bindweed” value ([15]; 125 g ai/ha Postemergence) was 50, the “Plant response rating, Field Bindweed” value ([15]; 125 g ai/ha Preemergence) was 40 and the “Plant response rating, Foxtail, Giant” value ([16]; 16 g ai/ha Preemergence) was 0. The “Plant response rating, Foxtail, Giant” value ([16]; 31 g ai/ha Preemergence) was 0, the “Plant response rating, Foxtail, Giant” value ([16]; 62 g ai/ha Preemergence) was 0 and the “Plant response rating, Foxtail, Giant” value ([16]; 125 g ai/ha Preemergence) was 20.
